In patent US6294650A, “Inhibition of mammalian telomerase by peptide nucleic acids” (The Board of Regents, University of Texas System, priority 1999, dated 2001):
Like-named read-outs stand apart in the source and are kept apart here.

Legend:
human telomerase [1] = experiment: TRAPeze telomerase assay, HME50-5 cell lysate preincubated with PNA (PNA scanning); format: biochemical; details: 25° C., 30 min preincubation
Procedure: The source of telomerase was human immortal primary breast epithelial cell line (HME50-5). Cultured cells (10^5 -10^6) were lysed as recommended in the protocol supplied by Oncor. Cell lysates containing 200 cell equivalents were preincubated at 25° C. for 30 minutes with PNA (0 to 100 μM, diluted in 10 mM Tris pH 8.3 and 10 μg ml^-1 bovine serum albumin (BSA)). PNAs sometime aggregated upon prolonged storage, so PNA stocks were briefly heated to 55° C. prior to addition to assay mixtures to ensure reproducible inhibition. Following preincubation, TRAPeze reaction mixture (20 mM Tris-HCl, pH 8.3, 1.5 mM MgCl2, 63 mM KCl, 0.05% Tween 20, 1 mM EGTA, and 0.01% BSA, 50 μM dNTPs, and primer mix supplied in the kit) was added directly to the mixture of PNA and cell extract. This reaction was incubated at 25° C. for 30 minutes to allow telomerase to elongate the TS primer. […] The tubes were transferred to a PCR thermocycler, and a two-step cycle (30 sec 94° C. and 30 sec 60° C.) was performed 27 times. Samples were analyzed using nondenaturing polyacrylamide gel electrophoresis.
Telomerase products and an internal PCR control were quantitated by phosphorimager analysis (Molecular Dynamics). The lanes were divided into one region encompassing the telomerase products and another including the internal standard signal. The radioisotope density was integrated for each area, and the ratio of telomerase product to internal standard was determined. This value was normalized to a positive control (no PNA added) where the ratio of telomerase products to internal standard was assigned 100% activity. The extent inhibition was plotted against the final PNA concentration used in the preincubation reaction, and these graphs were used to estimate the IC50 values.
These PNAs were incubated with telomerase-containing cell extracts derived from a human immortal primary breast epithelial cell line (HME50-5) and assayed their influence on telomerase activity using the telomere repeat amplification protocol (TRAP) (Holt et al., supra).

[2] = system: complementary DNA oligonucleotides; experiment: Melting temperature of PNA:DNA duplexes, absorbance at 260 nm; format: physicochemical; details: PNA with complementary DNA, 20 μM each, 1.0 M phosphate pH 7.6
Procedure: Determinations were done in a volume of 0.5 mL in a capped cuvette. […] Absorbance was recorded from 25° C. to 90° C. in 4° C. or 5° C. increments using a 2 minute equilibration time between each measurement. DNA oligonucleotides used for measuring Tm values, and their complementary PNAs were as follows; [NT] […] ID NO:31) ([…] ID NO:32) (PNAs 7, 17). Melting temperatures were measured (Tm) of duplexes between PNAs and their DNA complements to ensure that the PNAs used in these studies could form duplexes with complementary sequences at the assay temperature of 25° C. DNA oligonucleotides were used because employment of DNA rather than RNA facilitated analysis of the large number of PNAs that required assay. Comparison to RNA:PNA melting temperatures is justified because Tm 's for PNA:DNA and PNA:RNA hybrids are similar.

human telomerase [3] = experiment: Km app of telomerase for TS primer (TRAP assay with varied TS primer); format: biochemical; details: TS primer 0 to 60 nM, 30 min at 25° C.; read-out: apparent binding constant, Km app, of telomerase for TS primer
Procedure: Telomerase assays were performed essentially as described above with slight modifications. Both the TS and CX primers (0.1 μg) were placed below the wax barrier and the concentration of TS primer was varied from 0 nM to 60 nM, above the wax barrier, in the reaction mixture. The reaction was allowed to proceed for 30 minutes at 25° C. followed by PCR as described. The products were quantitated as described with telomerase activity relative to control plotted versus the TS primer concentration.
To put the efficiency of inhibition into context, the affinity of the TS primer for telomerase was determined. Primer affinity of telomerase was determined by monitoring the level of telomerase activity as a function of concentration of the TS primer. The TS primer is complementary to only three bases of the RNA template of the hTR, and was not initially expected to bind tightly to telomerase. The TRAP assay was performed as described, except that the concentration of the TS primer above the wax barrier was varied from 0 to 60 nM. The concentration of TS primer below the wax barrier was varied to keep the total concentration constant.

| Substance | IC50 (human telomerase [1]; read-out: IC50 (μM), Table 2) | IC50 (human telomerase [1]; read-out: IC50 for inhibition of telomerase (text)) | Tm ° C., Table 2 [2] | Tm ° C., Table 2 ([2]; listed as 4) | Km (human telomerase [3]) |
| --- | --- | --- | --- | --- | --- |
| PNA 4: PNA, sequence GGGTTAGACAA | 0.01 µM | 0.01 µM | 67 °C | 71 °C | – |
| PNA 15: PNA, sequence GCCCTTCTCAG (all peptide nucleic acid (PNA)) | 0.5 µM | – | 56 °C | – | – |
| TS primer: oligonucleotide primer that can be extended by telomerase, 5'-AATCCGTCGAGCAGAGTT-3' (further chemistry not given here) | – | – | – | – | 8 nM |
